In patent publication EP4501942A1, “PEPTIDOMIMETICS WITH ANTIVIRAL ACTIVITY” (priority 2023, dated 2025):
Like-named read-outs stand apart in the source and are kept apart here.

Experiments:
SARS-CoV-2 M^pro protein = SARS-CoV-2 M^pro protein (Severe acute respiratory syndrome coronavirus 2, UniProt P0DTD1); assay: biochemical; settings: for IC50: isolated SARS-CoV-2 M^pro, three separate experiments in duplicate, read-out: IC50, mean±SD
SARS-CoV-2 = assay: microbe, parasite or virus in culture; assay type: cell-based; settings: Severe acute respiratory syndrome coronavirus 2, SARS-CoV-2, A549-ACE2 cells, MOI 0.005, 48 h; for EC50: read-out: EC50; for EC90: read-out: EC90
[1] = Cytotoxicity MTT assay in uninfected A549-ACE2 cells; assay type: cell-based; settings: human
Procedure: To evaluate the cytotoxicity profile of the compounds MTT assays were performed in A549-ACE2 cells. Uninfected cells were incubated with a range of compound concentrations (from 100 to 1 µM) for forty-eight hours, time at which the MTT substrate [3-(4,5-dimethylthiazol-2-yl)-2,5-diphenyltetrazolium bromide] was added and the formation of formazan precipitates was evaluated two hours later, using a colorimetric readout. Vehicle-treated (DMSO) cells were used as reference (100 %).

[2] = tested on: GFP-expressing recombinant vesicular stomatitis virus (VSV-GFP); assay: microbe, parasite or virus in culture; assay type: cell-based; settings: A549-ACE2, 16 h
in vitro [3] = settings: human
in vitro [4] = assay: in vitro

Row | SMILES | IC50 (SARS-CoV-2 M^pro protein) [µM] | EC50 (SARS-CoV-2) [µM] | EC90 (SARS-CoV-2) [µM] | CC50 at 48 h [1] [µM] | EC50 [2] [µM] | EC90 [2] [µM] | CC50 (in vitro [3]) [µM] | CC50 (in vitro [4]) [µM] | inhibition at 10 µM (SARS-CoV-2 M^pro protein; read-out: % of inhibition at 10 µM) [%]
1 | CC(C)[C@H](NC(=O)OC(C)(C)C)C(=O)N1C[C@@H](C)[C@@]1(Cc1ccccc1)C(=O)N[C@H](C#N)C[C@@H]1CCNC1=O [Example 6] | 0.07 ± 0.01 | 1 | 3 | > 100 | > 50 | > 50 | > 50 | > 50 | 
2 | CC(C)[C@H](NC(=O)OC(C)(C)C)C(=O)N1C[C@@H](C)[C@@]1(CC1CCCCC1)C(=O)N[C@H](C#N)C[C@@H]1CCNC1=O [Example 36] | 0.19 ± 0.01 | 2 | 4 | > 100 | > 50 | > 50 | > 50 | > 50 | 
3 | C[C@@H]1CN(C(=O)[C@@H](NC(=O)OC(C)(C)C)C(C)(C)C)[C@]1(Cc1ccccc1)C(=O)N[C@H](C#N)C[C@@H]1CCNC1=O [Example 14] | 0.3 ± 0.03 | 1 | 3 | > 100 | > 50 | > 50 | > 50 | > 50 | 
4 | C[C@@H]1CN(C(=O)[C@@H](NC(=O)OC(C)(C)C)C(C)(C)C)[C@]1(Cc1ccccc1)C(=O)N[C@H](C=O)C[C@@H]1CCNC1=O [Example 29, Boc-L-Tbg-(αS,β'R')-Azf-L-Ala(3S-2-oxopyrrolidin-3-yl)-H] | 0.027 ± 0.006 | 1 | 2 | > 100 | > 50 | > 50 | > 50 | > 50 | 
5 | CCCC[C@@H](C#N)NC(=O)[C@]1(CC(C)C)[C@H](C)CN1C(=O)[C@@H](NC(=O)NC(C)(C)C)C(C)(C)C [Example 25, ^tBuNHCO-L-Tbg-(αS,β'R)-Azl-NH-[(1S)-1-cyano]pentane] |  |  |  |  | > 50 | > 50 | > 50 | > 50 | 0
